Experiments:
Type in all cases: cell-based
AHR [1] = target: T1, AHR (Homo sapiens, UniProt P35869); experiment: In vitro assay 3: AHR-regulated CYP1A1 expression in human cell line (U937, qPCR, KA stimulation); details: U937 cells, 200 uM KA, 6 hours, CYP1A1 expression by qPCR; read-out: Assay 3: Hum CYP1A1 Antagonism IC50
T1 sequence (P35869 11-848): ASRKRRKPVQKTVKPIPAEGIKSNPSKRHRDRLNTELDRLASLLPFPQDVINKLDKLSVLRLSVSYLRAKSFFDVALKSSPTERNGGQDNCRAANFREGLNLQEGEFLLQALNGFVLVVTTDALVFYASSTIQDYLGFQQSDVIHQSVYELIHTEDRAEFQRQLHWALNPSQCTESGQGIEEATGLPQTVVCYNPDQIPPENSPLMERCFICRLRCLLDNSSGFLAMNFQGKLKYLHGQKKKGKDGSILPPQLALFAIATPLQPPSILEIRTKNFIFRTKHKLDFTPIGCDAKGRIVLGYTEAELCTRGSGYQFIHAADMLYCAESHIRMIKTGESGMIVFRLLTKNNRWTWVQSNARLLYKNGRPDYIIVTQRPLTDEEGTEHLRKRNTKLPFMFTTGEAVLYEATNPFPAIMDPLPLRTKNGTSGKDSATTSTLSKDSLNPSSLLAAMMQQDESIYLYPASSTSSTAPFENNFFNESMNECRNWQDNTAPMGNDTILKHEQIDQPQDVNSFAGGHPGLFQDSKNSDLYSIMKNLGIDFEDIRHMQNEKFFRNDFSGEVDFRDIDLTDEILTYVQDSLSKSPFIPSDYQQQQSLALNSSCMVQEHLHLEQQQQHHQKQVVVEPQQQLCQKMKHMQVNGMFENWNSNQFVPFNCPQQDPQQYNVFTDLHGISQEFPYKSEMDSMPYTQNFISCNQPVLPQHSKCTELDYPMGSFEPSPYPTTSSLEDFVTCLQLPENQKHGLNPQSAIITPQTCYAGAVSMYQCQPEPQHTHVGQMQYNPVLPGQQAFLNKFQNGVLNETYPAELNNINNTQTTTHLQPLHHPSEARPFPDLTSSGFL
Outline: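 U937 human monocytic cells were stimulated with 200 uM KA for 6 h, with or without compound at eight concentrations from 1 nM to 3 uM, in duplicate. CYP1A1 mRNA was quantified by Taqman qPCR as fold expression normalised to HPRT. Unstimulated cells served as negative control.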

AHR [2] = target: T1, AHR; experiment: In vitro assay 2: agonism in human cell line (transactivation assay, U87 cells, DRE firefly luciferase reporter); parameters: host or cells: U87 glioblastoma cells, stably transfected with DRE firefly luciferase and renilla reporter constructs; details: no kynurenic acid, 20 hours, read-out: Assay 2: AHR-luc Hum Agonism IC50
Outline: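 U87 glioblastoma cells with endogenous AHR, stably carrying DRE-driven firefly luciferase and constitutive renilla reporters. 300 uM kynurenic acid served as positive activation control; data normalized to positive and negative controls.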

AHR [3] = target: T1, AHR; experiment: In vitro assay 1: antagonism in human cell line (transactivation assay, U87 cells prestimulated with kynurenic acid, DRE firefly luciferase reporter); parameters: host or cells: U87 glioblastoma cells, stably transfected with DRE firefly luciferase and renilla reporter constructs; details: 150 uM kynurenic acid, 20 hours, read-out: Assay 1: AHR-luc Hum Antagonism IC50
Outline: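 U87 glioblastoma cells with endogenous AHR, stably carrying a DRE-driven firefly luciferase reporter and a constitutive renilla reporter. Cells prestimulated with the AHR agonist kynurenic acid before compound addition; data normalized to positive and negative controls.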

O=C(N[C@@H]1CCC[C@H]1O)c1cc(-c2ccc(C(F)(F)F)cc2)nn(-c2cccnc2)c1=O [Example 104, N-[(1R,2R)-2-Hydroxycyclopentyl]-3-oxo-2-(pyridin-3-yl)-6-[4-(trifluoromethyl)phenyl]-2,3-dihydropyridazine-4-carboxamide]
IC50 (AHR [1]): 14.8 nM
IC50 (AHR [2]): > 20000 nM
IC50 (AHR [3]): 20.2 nM

O=C(N[C@H]1CCC[C@H]1O)c1cc(-c2ccc(C(F)(F)F)cc2)nn(-c2cccnc2)c1=O [Example 105, N-[(1S,2R)-2-Hydroxycyclopentyl]-3-oxo-2-(pyridin-3-yl)-6-[4-(trifluoromethyl)phenyl]-2,3-dihydropyridazine-4-carboxamide]
IC50 (AHR [1]): 1.86 nM
IC50 (AHR [2]): > 20000 nM
IC50 (AHR [3]): 2.37 nM

O=C(N[C@H](CO)C(F)(F)F)c1cc(-c2ccc(C(F)(F)F)cc2)nn(-c2cccnc2)c1=O [Example 112, 3-Oxo-2-(pyridin-3-yl)-N-[(2R)-1,1,1-trifluoro-3-hydroxypropan-2-yl]-6-[4-(trifluoromethyl)phenyl]-2,3-dihydropyridazine-4-carboxamide]
IC50 (AHR [1]): 0.905 nM
IC50 (AHR [2]): > 20000 nM
IC50 (AHR [3]): 1.15 nM

CC(C)(O)CNC(=O)c1cc(-c2ccc(C(F)(F)F)cc2)nn(-c2cccnc2)c1=O [Example 115, N-(2-Hydroxy-2-methylpropyl)-3-oxo-2-(pyridin-3-yl)-6-[4-(trifluoromethyl)phenyl]-2,3-dihydropyridazine-4-carboxamide]
IC50 (AHR [1]): 10.9 nM
IC50 (AHR [2]): > 20000 nM
IC50 (AHR [3]): 2.63 nM

C[C@H](CO)NC(=O)c1cc(-c2ccc(C(F)(F)F)cc2)nn(-c2cccnc2)c1=O [Example 118, N-[(2R)-1-Hydroxypropan-2-yl]-3-oxo-2-(pyridin-3-yl)-6-[4-(trifluoromethyl)phenyl]-2,3-dihydropyridazine-4-carboxamide]
IC50 (AHR [1]): 57 nM
IC50 (AHR [2]): > 20000 nM
IC50 (AHR [3]): 45.1 nM

C[C@@H](CO)NC(=O)c1cc(-c2ccc(C(F)(F)F)cc2)nn(-c2cccnc2)c1=O [Example 119, N-[(2S)-1-Hydroxypropan-2-yl]-3-oxo-2-(pyridin-3-yl)-6-[4-(trifluoromethyl)phenyl]-2,3-dihydropyridazine-4-carboxamide]
IC50 (AHR [1]): 5.72 nM
IC50 (AHR [2]): > 20000 nM
IC50 (AHR [3]): 3.06 nM

O=C(N[C@H]1CCCC[C@H]1O)c1cc(-c2ccc(Cl)cc2)nn(-c2cccnc2)c1=O [Example 125, 6-(4-Chlorophenyl)-N-[(1S,2R)-2-hydroxycyclohexyl]-3-oxo-2-(pyridin-3-yl)-2,3-dihydropyridazine-4-carboxamide]
IC50 (AHR [1]): 4.4 nM
IC50 (AHR [2]): > 20000 nM
IC50 (AHR [3]): 3.82 nM

O=C(N[C@H]1CCCC[C@H]1O)c1cc(-c2ccc(OC(F)(F)F)cc2)nn(-c2cccnc2)c1=O [Example 126, N-[(1S,2R)-2-Hydroxycyclohexyl]-3-oxo-2-(pyridin-3-yl)-6-[4-(trifluoromethoxy)phenyl]-2,3-dihydropyridazine-4-carboxamide]
IC50 (AHR [1]): 5.15 nM
IC50 (AHR [2]): > 20000 nM
IC50 (AHR [3]): 4.6 nM

O=C(N[C@H]1CCC[C@@H]1O)c1cc(-c2ccc(Cl)cc2)nn(-c2cccnc2)c1=O [Example 130, 6-(4-Chlorophenyl)-N-[(1S,2S)-2-hydroxycyclopentyl]-3-oxo-2-(pyridin-3-yl)-2,3-dihydropyridazine-4-carboxamide]
IC50 (AHR [1]): 6.42 nM
IC50 (AHR [2]): > 20000 nM
IC50 (AHR [3]): 6.54 nM

O=C(N[C@H](CO)C(F)(F)F)c1cc(-c2ccc(OC(F)(F)F)cc2)nn(-c2cccnc2)c1=O [Example 134, 3-Oxo-2-(pyridin-3-yl)-N-[(2R)-1,1,1-trifluoro-3-hydroxypropan-2-yl]-6-[4-(trifluoromethoxy)phenyl]-2,3-dihydropyridazine-4-carboxamide]
IC50 (AHR [1]): 9.89 nM
IC50 (AHR [2]): > 20000 nM
IC50 (AHR [3]): 7.68 nM

O=C(N[C@H]1CCC[C@@H]1O)c1cc(-c2ccc(C(F)F)cc2)nn(-c2cccnc2)c1=O [Example 139, 6-[4-(Difluoromethyl)phenyl]-N-[(1S,2S)-2-hydroxycyclopentyl]-3-oxo-2-(pyridin-3-yl)-2,3-dihydropyridazine-4-carboxamide]
IC50 (AHR [1]): 9.16 nM
IC50 (AHR [2]): > 20000 nM
IC50 (AHR [3]): 9.2 nM

O=C(NC(CO)C(F)(F)F)c1cc(-c2ccc(OC(F)(F)F)cc2)nn(-c2cccnc2)c1=O (stereo not drawn) [Example 149, 3-Oxo-2-(pyridin-3-yl)-N-(1,1,1-trifluoro-3-hydroxypropan-2-yl)-6-[4-(trifluoromethoxy)phenyl]-2,3-dihydropyridazine-4-carboxamide]
IC50 (AHR [1]): 11.2 nM
IC50 (AHR [2]): > 20000 nM
IC50 (AHR [3]): 18.8 nM

Cc1ccc(-c2cc(C(=O)N[C@@H](C)CO)c(=O)n(-c3cccnc3)n2)cc1 [Example 152, N-[(2S)-1-Hydroxypropan-2-yl]-6-(4-methylphenyl)-3-oxo-2-(pyridin-3-yl)-2,3-dihydropyridazine-4-carboxamide]
IC50 (AHR [1]): 21.3 nM
IC50 (AHR [2]): > 20000 nM
IC50 (AHR [3]): 24.1 nM

C[C@@H](CO)NC(=O)c1cc(-c2ccc(OC(F)(F)F)cc2)nn(-c2cccnc2)c1=O [Example 153, N-[(2S)-1-Hydroxypropan-2-yl]-3-oxo-2-(pyridin-3-yl)-6-[4-(trifluoromethoxy)phenyl]-2,3-dihydropyridazine-4-carboxamide]
IC50 (AHR [1]): 21.7 nM
IC50 (AHR [2]): > 20000 nM
IC50 (AHR [3]): 24.2 nM

O=C(N[C@H]1COCC[C@H]1O)c1cc(-c2ccc(Cl)cc2)nn(-c2cccnc2)c1=O [Example 175, 1,5-Anhydro-2-({[6-(4-chlorophenyl)-3-oxo-2-(pyridin-3-yl)-2,3-dihydropyridazin-4-yl]carbonyl}amino)-2,4-dideoxy-D-erythro-pentitol]
IC50 (AHR [1]): 112 nM
IC50 (AHR [2]): > 20000 nM
IC50 (AHR [3]): 66.1 nM

O=C(N[C@H]1COCC[C@H]1O)c1cc(-c2ccc(OC(F)(F)F)cc2)nn(-c2cccnc2)c1=O [Example 176, 1,5-Anhydro-2,4-dideoxy-2-[({3-oxo-2-(pyridin-3-yl)-6-[4-(trifluoromethoxy)phenyl]-2,3-dihydropyridazin-4-yl}carbonyl)amino]-D-erythro-pentitol]
IC50 (AHR [1]): 38.8 nM
IC50 (AHR [2]): > 20000 nM
IC50 (AHR [3]): 66.1 nM

C[C@@H](CO)NC(=O)c1cc(-c2ccc(Cl)cc2)nn(-c2ccn(C)n2)c1=O [Example 192, 6-(4-Chlorophenyl)-N-[(2S)-1-hydroxypropan-2-yl]-2-(1-methyl-1H-pyrazol-3-yl)-3-oxo-2,3-dihydropyridazine-4-carboxamide]
IC50 (AHR [1]): 4.3 nM
IC50 (AHR [2]): > 20000 nM
IC50 (AHR [3]): 341 nM

Cc1cc(-n2nc(-c3ccc(Cl)cc3)cc(C(=O)N[C@@H](C)CO)c2=O)[nH]n1 [Example 193, 6-(4-Chlorophenyl)-N-[(2S)-1-hydroxypropan-2-yl]-2-(3-methyl-1H-pyrazol-5-yl)-3-oxo-2,3-dihydropyridazine-4-carboxamide]
IC50 (AHR [1]): 3.03 nM
IC50 (AHR [2]): > 20000 nM
IC50 (AHR [3]): 352 nM

C[C@@H](CO)NC(=O)c1cc(-c2ccc(Cl)cc2)nn(-c2cnsc2)c1=O [Example 194, (+)-6-(4-Chlorophenyl)-N-[(2S)-1-hydroxypropan-2-yl]-3-oxo-2-(1,2-thiazol-4-yl)-2,3-dihydropyridazine-4-carboxamide]
IC50 (AHR [1]): 7.6 nM
IC50 (AHR [2]): > 20000 nM
IC50 (AHR [3]): 3.09 nM

Cn1cc(-n2nc(-c3ccc(C(F)(F)F)cc3)cc(C(=O)N[C@H]3CCC[C@H]3O)c2=O)cn1 [Example 204, N-[(1S,2R)-2-Hydroxycyclopentyl]-2-(1-methyl-1H-pyrazol-4-yl)-3-oxo-6-[4-(trifluoromethyl)phenyl]-2,3-dihydropyridazine-4-carboxamide]
IC50 (AHR [1]): 1.55 nM
IC50 (AHR [2]): > 20000 nM
IC50 (AHR [3]): 1 nM

Cn1cc(-n2nc(-c3ccc(C(F)(F)F)cc3)cc(C(=O)N[C@H]3CCC[C@@H]3O)c2=O)cn1 [Example 210, N-[(1S,2S)-2-Hydroxycyclopentyl]-2-(1-methyl-1H-pyrazol-4-yl)-3-oxo-6-[4-(trifluoromethyl)phenyl]-2,3-dihydropyridazine-4-carboxamide]
IC50 (AHR [1]): 2.02 nM
IC50 (AHR [2]): > 20000 nM
IC50 (AHR [3]): 1.46 nM
